Data on one compound can be found in ChEMBL document CHEMBL3351363 (J Med Chem, 2014).

Test [1] concerns the target T1, Muscarinic acetylcholine receptor M2 (Homo sapiens, UniProt P08172).
T1 sequence (P08172 whole entry): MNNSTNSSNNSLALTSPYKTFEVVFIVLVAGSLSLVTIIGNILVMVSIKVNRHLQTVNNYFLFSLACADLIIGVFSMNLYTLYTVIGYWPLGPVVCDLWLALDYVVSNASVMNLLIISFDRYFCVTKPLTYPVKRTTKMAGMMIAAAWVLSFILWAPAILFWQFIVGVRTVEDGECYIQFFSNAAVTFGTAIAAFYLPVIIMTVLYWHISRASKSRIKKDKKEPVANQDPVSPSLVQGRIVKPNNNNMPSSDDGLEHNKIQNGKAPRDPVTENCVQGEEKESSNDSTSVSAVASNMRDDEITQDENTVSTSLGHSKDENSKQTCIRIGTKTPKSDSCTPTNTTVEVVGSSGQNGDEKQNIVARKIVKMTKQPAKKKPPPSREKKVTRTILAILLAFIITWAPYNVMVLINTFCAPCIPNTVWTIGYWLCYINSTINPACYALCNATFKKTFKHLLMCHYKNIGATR
Put plainly: Displacement of [3H]NMS from human M2 receptor expressed in CHO cells by microplate scintillation counting based radioligand binding assay. The class given is cell-based. (Loss of bound radioactivity is the signal in a displacement assay; it reports binding, not function.)

Test [2] addresses Muscarinic acetylcholine receptor M3 (Homo sapiens, UniProt P20309). As to the kind of experiment: Displacement of [3H]NMS from human M3 receptor expressed in CHO cells by microplate scintillation counting based radioligand binding assay. It is filed as cell-based.
Test [3] addresses T2, Muscarinic acetylcholine receptor M4 (Homo sapiens, UniProt P08173).
T2 sequence (P08173 whole entry): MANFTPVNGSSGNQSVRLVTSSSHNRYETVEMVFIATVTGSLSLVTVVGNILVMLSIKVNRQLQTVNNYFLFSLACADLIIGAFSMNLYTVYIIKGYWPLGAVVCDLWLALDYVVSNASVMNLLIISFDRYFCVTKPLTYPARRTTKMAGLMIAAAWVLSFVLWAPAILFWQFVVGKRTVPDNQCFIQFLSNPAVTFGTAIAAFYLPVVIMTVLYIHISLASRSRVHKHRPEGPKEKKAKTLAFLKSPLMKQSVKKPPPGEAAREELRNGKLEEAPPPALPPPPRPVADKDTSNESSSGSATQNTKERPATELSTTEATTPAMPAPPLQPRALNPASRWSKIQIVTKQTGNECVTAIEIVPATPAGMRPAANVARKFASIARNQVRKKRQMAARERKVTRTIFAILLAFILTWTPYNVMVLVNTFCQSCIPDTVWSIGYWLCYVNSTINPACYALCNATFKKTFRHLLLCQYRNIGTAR
As to the kind of experiment: Displacement of [3H]NMS from human M4 receptor expressed in CHO cells by microplate scintillation counting based radioligand binding assay. It is filed as cell-based.

Test [4] has as its target T3, Muscarinic acetylcholine receptor M1 (Homo sapiens, UniProt P11229).
T3 sequence (P11229 whole entry): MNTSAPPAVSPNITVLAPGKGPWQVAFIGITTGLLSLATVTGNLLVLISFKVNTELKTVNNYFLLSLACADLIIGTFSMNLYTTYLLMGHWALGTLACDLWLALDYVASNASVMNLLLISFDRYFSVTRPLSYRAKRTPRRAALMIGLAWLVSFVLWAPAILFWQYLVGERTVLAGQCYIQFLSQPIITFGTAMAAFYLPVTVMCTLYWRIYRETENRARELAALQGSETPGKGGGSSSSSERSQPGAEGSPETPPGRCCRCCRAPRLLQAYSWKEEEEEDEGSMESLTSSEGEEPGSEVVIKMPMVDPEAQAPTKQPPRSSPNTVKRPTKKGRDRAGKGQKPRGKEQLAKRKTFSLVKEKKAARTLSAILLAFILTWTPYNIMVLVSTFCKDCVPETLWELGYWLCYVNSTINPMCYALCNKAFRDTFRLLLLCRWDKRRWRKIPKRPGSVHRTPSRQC
As to the kind of experiment: Agonist activity at human M1 receptor expressed in HEK293T cells by BRET based Gq protein engagement assay.

Test [5] deals with T4, Muscarinic acetylcholine receptor M1 (Homo sapiens) (UniProt P11229).
T4 sequence (whole entry): T3 sequence (P11229 whole entry)
As to the kind of experiment: Agonist activity at human M1 receptor expressed in HEK293T cells by BRET based Gq protein engagement assay relative carbachol. It is filed as cell-based. The settings on record: HEK-293T. (In general: In BRET a luciferase serves as donor, and the signal depends on an acceptor being close.)

Test [6] addresses T3, Muscarinic acetylcholine receptor M1. As to the kind of experiment: Positive modulatory activity at human M1 receptor expressed in HEK293T cells assessed as effect on carbachol-induced response by BRET based Gq protein engagement assay. The class given is cell-based, HEK-293T.
For test [7], the target named is T4, Muscarinic acetylcholine receptor M1 (Homo sapiens). As to the kind of experiment: Positive modulatory activity at human M1 receptor expressed in HEK293T cells assessed as effect on carbachol-induced response by BRET based Gq protein engagement assay relative to untreated control. The conditions noted are these: HEK-293T. It is filed as cell-based.
Test [8] has as its target T3, Muscarinic acetylcholine receptor M1. Put plainly: Agonist activity at human M1 receptor expressed in HEK293T cells by BRET based Gq protein activation assay. It is filed as cell-based, HEK-293T.
Test [9] has the same target. Put plainly: Positive modulatory activity at human M1 receptor expressed in HEK293T cells assessed as effect on carbachol-induced response by BRET based Gq protein activation assay. It is filed as cell-based, HEK-293T.
In test [10] the target is T4, Muscarinic acetylcholine receptor M1 (Homo sapiens). As to the kind of experiment: Positive modulatory activity at human M1 receptor expressed in HEK293T cells assessed as effect on carbachol-induced response by BRET based Gq protein activation assay relative to untreated control. The conditions noted are these: HEK-293T. The class given is cell-based.
The target of test [11] is T3, Muscarinic acetylcholine receptor M1. As to the kind of experiment: Agonist activity at human M1 receptor expressed in HEK293T cells by BRET based beta-arrestin engagement assay.
Test [12] addresses T2, Muscarinic acetylcholine receptor M4. Put plainly: Antagonist activity at human M4 receptor expressed in HEK293T cells assessed as inhibition of carbachol-induced response by BRET based Gq protein engagement assay. It is filed as cell-based, HEK-293T.
Test [13] has the same target. As to the kind of experiment: Antagonist activity at human M4 receptor expressed in HEK293T cells assessed as inhibition of xanomeline-induced response by BRET based Gq protein engagement assay. It is filed as cell-based, HEK-293T.
Test [14] addresses T5, Muscarinic acetylcholine receptor M4 (Homo sapiens) (UniProt P08173).
T5 sequence (whole entry): T2 sequence (P08173 whole entry)
Put plainly: Antagonist activity at human M4 receptor expressed in HEK293T cells assessed as inhibition of xanomeline-induced response by BRET based Gq protein engagement assay relative to untreated control. The settings on record: HEK-293T. It is filed as cell-based.

For test [15], the target named is T2, Muscarinic acetylcholine receptor M4. Put plainly: Agonist activity at human M4 receptor expressed in HEK293T cells by BRET based Gq protein activation assay.
The target of test [16] is T5, Muscarinic acetylcholine receptor M4 (Homo sapiens). Put plainly: Antagonist activity at human M4 receptor expressed in HEK293T cells assessed as inhibition of carbachol-induced response by beta-arrestin engagement assay relative to untreated control. It is filed as cell-based. The settings on record: HEK-293T.
Test [17] addresses T2, Muscarinic acetylcholine receptor M4. As to the kind of experiment: Antagonist activity at human M4 receptor expressed in HEK293T cells assessed as inhibition of xanomeline-induced response by beta-arrestin engagement assay. It is filed as cell-based, HEK-293T.
Test [18] deals with T5, Muscarinic acetylcholine receptor M4 (Homo sapiens). Put plainly: Antagonist activity at human M4 receptor expressed in HEK293T cells assessed as inhibition of xanomeline-induced response by beta-arrestin engagement assay relative to untreated control. The settings on record: HEK-293T. It is filed as cell-based.
Test [19] deals with T3, Muscarinic acetylcholine receptor M1.
The target is the same in test [20]. The source holds these as a separate data set.
The target is the same in test [21]. This is another data set of the same source.
Test [22] deals with T5, Muscarinic acetylcholine receptor M4 (Homo sapiens). Put plainly: Agonist activity at human M4 receptor expressed in HEK293T cells by BRET based Gi protein activation assay relative to carbachol. The conditions noted are these: HEK-293T.

Muscarinic acetylcholine receptor M3, sequence (P20309 whole entry): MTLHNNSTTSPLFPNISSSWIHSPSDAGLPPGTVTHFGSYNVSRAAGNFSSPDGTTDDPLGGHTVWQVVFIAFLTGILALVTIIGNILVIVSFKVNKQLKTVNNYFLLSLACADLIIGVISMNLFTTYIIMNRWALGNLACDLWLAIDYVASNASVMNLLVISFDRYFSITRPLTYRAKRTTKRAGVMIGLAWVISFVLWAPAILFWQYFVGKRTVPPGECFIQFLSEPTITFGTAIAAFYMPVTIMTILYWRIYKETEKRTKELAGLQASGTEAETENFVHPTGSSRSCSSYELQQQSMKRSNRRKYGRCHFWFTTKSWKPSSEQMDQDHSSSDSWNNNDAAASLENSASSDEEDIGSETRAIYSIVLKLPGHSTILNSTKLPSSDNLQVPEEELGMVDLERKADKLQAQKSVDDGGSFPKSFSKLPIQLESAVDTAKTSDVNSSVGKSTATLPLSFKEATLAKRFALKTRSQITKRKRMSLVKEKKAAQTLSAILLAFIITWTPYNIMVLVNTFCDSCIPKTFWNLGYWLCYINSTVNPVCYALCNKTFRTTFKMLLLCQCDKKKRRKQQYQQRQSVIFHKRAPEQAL

As usually defined, the Ki is the dissociation constant of the complex between target and ligand, obtained from inhibition or displacement. Low readings indicate tighter binding, high ones weaker binding. Usually EC50 stands for the concentration at which the effect is half-maximal. The term Emax denotes the size of the effect at its maximum, as opposed to the concentration needed. Broadly, the IC50 is the concentration that inhibits the measured activity by half. Regarding `CCCCC1CCN(CCCN2C(=O)CCc3ccccc32)CC1`, the inhibitory constant (Ki) in [1] is 204 nM; in [2], 1200 nM; in [3] it was 209 nM. Also, the EC50 in test [4] was 60.3 nM; in test [6], 34.7 nM; in test [8], 102 nM; in test [9] it was 191 nM; in [11], 832 nM; in [15] it was 275 nM. The half-maximal effective concentration (EC50) is 120 nM in [19] and 263 nM in test [20]. In addition, the maximal effect (Emax) in test [5] is 81%; in [7], 101%; in test [10] it was 79%; in [22] it was 46%. The IC50 was 2240 nM in test [12], 120000 nM in test [13], 7590 nM in [17] and 174 nM in [21]. The Imax in test [14] stood at 78%; in test [16], 16%; in test [18] it was 19%.
